A short description of the data set: recombinant barcode read abundance after kanamycin selection (control-corrected) (log10(CPM+1)); higher = more efficient recombination; sequences stand for … in AGTGCAGAGAAAATCGGCCAGTTTTCTCTGCCTGCAGTCCGCATGCCGT…ATTTATGCAGCGGACTGCCTTTCTCCCAAAGTGATAAACCGGACAGTATCATGGACCGGTTTTCCCGGTAATCCGTATTTGCAAGGTTGGTTTCACT; site = the 11-nt target. The gist of the method: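 A promoter, a target, a barcode and the first 104 bridge RNA bases under J23119 made up each oligo. Oligos were Gibson-cloned into a vector bearing the other 73 bp and a T7-inducible recombinase, then co-electroporated into E. coli with a donor plasmid and plated in duplicate on chloramphenicol/ampicillin LB agar (control) or chloramphenicol/ampicillin/kanamycin with 0.1 mM IPTG. Recombination efficiency is the averaged, control-corrected counts per million of recombinant-junction barcodes. Reported values are log10(CPM+1).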
As to “GGTGCCCCTTGGGTTCTAACCTGTTGCCGCC [GGTGCCCCTCG_LTGcore_CT_RTGcore_GG] (site GGTGCCCCTCG) (LTG core: CT, RTG core: GG)”, the “recombinant barcode read abundance (log10)” value came out at 0.0795.

On to “GGTGCCCCTTGGGTTCTAACCTGTTGCCGCG [GGTGCCCCTCG_LTGcore_CT_RTGcore_CG] (site GGTGCCCCTCG) (LTG core: CT, RTG core: CG)”, for which the “recombinant barcode read abundance (log10)” value turned out to be 0.222.

Regarding “GGTGCCCCTTGGGTTCTAACCTGTTGCCGCT [GGTGCCCCTCG_LTGcore_CT_RTGcore_AG] (site GGTGCCCCTCG) (LTG core: CT, RTG core: AG)”, the “recombinant barcode read abundance (log10)” value turned out to be 0.0402.

On to “GGTGCCCCTTGGGTTCTAACCTGTTGCCGGC [GGTGCCCCTCG_LTGcore_CT_RTGcore_GC] (site GGTGCCCCTCG) (LTG core: CT, RTG core: GC)”, for which the “recombinant barcode read abundance (log10)” value is 0.83.

For “GGTGCCCCTTGGGTTCTAACCTGTTGCCGGT [GGTGCCCCTCG_LTGcore_CT_RTGcore_AC] (site GGTGCCCCTCG) (LTG core: CT, RTG core: AC)”, the “recombinant barcode read abundance (log10)” value is 0.0162.

For “GGTGCCCGGTGGGTTCTAACCTGTTGCCGCC [GGTGCCCCTCG_LTGcore_GG_RTGcore_GG] (site GGTGCCCCTCG) (LTG core: GG, RTG core: GG)”, the “recombinant barcode read abundance (log10)” value is 0.0147.

As for “GGTGCCCGTTGGGTTCTAACCTGTTGCCGAG [GGTGCCCCTCG_LTGcore_GT_RTGcore_CT] (site GGTGCCCCTCG) (LTG core: GT, RTG core: CT)”, the “recombinant barcode read abundance (log10)” value was determined as 0.0597.

As for “GGTGCCCTTTGGGTTCTAACCTGTTGCCGAA [GGTGCCCCTCG_LTGcore_TT_RTGcore_TT] (site GGTGCCCCTCG) (LTG core: TT, RTG core: TT)”, the “recombinant barcode read abundance (log10)” value was 0.622.

As to “GTCGCCCAATGGGTTCTAACCTGTTGCTAAG [GTCGCCCCTTA_LTGcore_AA_RTGcore_CT] (site GTCGCCCCTTA) (LTG core: AA, RTG core: CT)”, the “recombinant barcode read abundance (log10)” value stood at 0.688.

Turning to “GTCGCCCACTGGGTTCTAACCTGTTGCTAAG [GTCGCCCCTTA_LTGcore_AC_RTGcore_CT] (site GTCGCCCCTTA) (LTG core: AC, RTG core: CT)”, the “recombinant barcode read abundance (log10)” value turned out to be 0.309.

Consider “GTCGCCCCATGGGTTCTAACCTGTTGCTAAG [GTCGCCCCTTA_LTGcore_CA_RTGcore_CT] (site GTCGCCCCTTA) (LTG core: CA, RTG core: CT)”, for which the “recombinant barcode read abundance (log10)” value stood at 2.04.

Regarding “GTCGCCCCCTGGGTTCTAACCTGTTGCTAAG [GTCGCCCCTTA_LTGcore_CC_RTGcore_CT] (site GTCGCCCCTTA) (LTG core: CC, RTG core: CT)”, the “recombinant barcode read abundance (log10)” value was determined as 0.771.

For “GTCGCCCCTTGGGTTCTAACCTGTTGCTAAT [GTCGCCCCTTA_LTGcore_CT_RTGcore_AT] (site GTCGCCCCTTA) (LTG core: CT, RTG core: AT)”, the “recombinant barcode read abundance (log10)” value is 0.474.

Regarding “GTCGCCCCTTGGGTTCTAACCTGTTGCTACG [GTCGCCCCTTA_LTGcore_CT_RTGcore_CG] (site GTCGCCCCTTA) (LTG core: CT, RTG core: CG)”, the “recombinant barcode read abundance (log10)” value is 0.323.

Regarding “GTCGCCCCTTGGGTTCTAACCTGTTGCTAGA [GTCGCCCCTTA_LTGcore_CT_RTGcore_TC] (site GTCGCCCCTTA) (LTG core: CT, RTG core: TC)”, the “recombinant barcode read abundance (log10)” value was 0.304.

Regarding “GTCGCCCGCTGGGTTCTAACCTGTTGCTAGC [GTCGCCCCTTA_LTGcore_GC_RTGcore_GC] (site GTCGCCCCTTA) (LTG core: GC, RTG core: GC)”, the “recombinant barcode read abundance (log10)” value turned out to be 0.459.

In the case of “GTCGCCCTCTGGGTTCTAACCTGTTGCTAAG [GTCGCCCCTTA_LTGcore_TC_RTGcore_CT] (site GTCGCCCCTTA) (LTG core: TC, RTG core: CT)”, the “recombinant barcode read abundance (log10)” value was 0.

For the sequence “TAAGAATACTGGGTTCTAACCTGTTGCCTGT [TAAGAATCTAG_LTGcore_AC_RTGcore_AC] (site TAAGAATCTAG) (LTG core: AC, RTG core: AC)”, the “recombinant barcode read abundance (log10)” value amounted to 0.0208.

For “TAAGAATCATGGGTTCTAACCTGTTGCCTAG [TAAGAATCTAG_LTGcore_CA_RTGcore_CT] (site TAAGAATCTAG) (LTG core: CA, RTG core: CT)”, the “recombinant barcode read abundance (log10)” value worked out at 0.838.

Take “TAAGAATCTTGGGTTCTAACCTGTTGCCTAC [TAAGAATCTAG_LTGcore_CT_RTGcore_GT] (site TAAGAATCTAG) (LTG core: CT, RTG core: GT)”: the “recombinant barcode read abundance (log10)” value is 0.116.

In the case of “TAAGAATCTTGGGTTCTAACCTGTTGCCTCA [TAAGAATCTAG_LTGcore_CT_RTGcore_TG] (site TAAGAATCTAG) (LTG core: CT, RTG core: TG)”, the “recombinant barcode read abundance (log10)” value is 0.343.

On to “TAAGAATCTTGGGTTCTAACCTGTTGCCTCC [TAAGAATCTAG_LTGcore_CT_RTGcore_GG] (site TAAGAATCTAG) (LTG core: CT, RTG core: GG)”, for which the “recombinant barcode read abundance (log10)” value worked out at 0.142.

With “TAAGAATCTTGGGTTCTAACCTGTTGCCTGT [TAAGAATCTAG_LTGcore_CT_RTGcore_AC] (site TAAGAATCTAG) (LTG core: CT, RTG core: AC)”, the “recombinant barcode read abundance (log10)” value was 0.0874.

On to “TAAGAATGATGGGTTCTAACCTGTTGCCTAG [TAAGAATCTAG_LTGcore_GA_RTGcore_CT] (site TAAGAATCTAG) (LTG core: GA, RTG core: CT)”, for which the “recombinant barcode read abundance (log10)” value amounted to 0.0742.

For “TAAGAATGCTGGGTTCTAACCTGTTGCCTGC [TAAGAATCTAG_LTGcore_GC_RTGcore_GC] (site TAAGAATCTAG) (LTG core: GC, RTG core: GC)”, the “recombinant barcode read abundance (log10)” value came to 0.0564.

Turning to “TAAGAATGGTGGGTTCTAACCTGTTGCCTCC [TAAGAATCTAG_LTGcore_GG_RTGcore_GG] (site TAAGAATCTAG) (LTG core: GG, RTG core: GG)”, the “recombinant barcode read abundance (log10)” value amounted to 0.113.

Regarding “TAAGAATTCTGGGTTCTAACCTGTTGCCTGA [TAAGAATCTAG_LTGcore_TC_RTGcore_TC] (site TAAGAATCTAG) (LTG core: TC, RTG core: TC)”, the “recombinant barcode read abundance (log10)” value came out at 0.0111.

On to “TAAGAATTGTGGGTTCTAACCTGTTGCCTCA [TAAGAATCTAG_LTGcore_TG_RTGcore_TG] (site TAAGAATCTAG) (LTG core: TG, RTG core: TG)”, for which the “recombinant barcode read abundance (log10)” value came to 0.0917.

On to “TAGAGGGATTGGGTTCTAACCTGTTGCGGAG [TAGAGGGCTCC_LTGcore_AT_RTGcore_CT] (site TAGAGGGCTCC) (LTG core: AT, RTG core: CT)”, for which the “recombinant barcode read abundance (log10)” value stood at 0.147.

For the sequence “TAGAGGGCGTGGGTTCTAACCTGTTGCGGAG [TAGAGGGCTCC_LTGcore_CG_RTGcore_CT] (site TAGAGGGCTCC) (LTG core: CG, RTG core: CT)”, the “recombinant barcode read abundance (log10)” value was 2.42.

“TAGAGGGGTTGGGTTCTAACCTGTTGCGGAG [TAGAGGGCTCC_LTGcore_GT_RTGcore_CT] (site TAGAGGGCTCC) (LTG core: GT, RTG core: CT)”: the “recombinant barcode read abundance (log10)” value came out at 0.85.

Take “TCGCGACATTGGGTTCTAACCTGTTGCCGAT [TCGCGACCTCG_LTGcore_AT_RTGcore_AT] (site TCGCGACCTCG) (LTG core: AT, RTG core: AT)”: the “recombinant barcode read abundance (log10)” value came out at 0.205.

As for “TCGCGACCCTGGGTTCTAACCTGTTGCCGAG [TCGCGACCTCG_LTGcore_CC_RTGcore_CT] (site TCGCGACCTCG) (LTG core: CC, RTG core: CT)”, the “recombinant barcode read abundance (log10)” value stood at 0.466.

As for “TCGCGACCGTGGGTTCTAACCTGTTGCCGCG [TCGCGACCTCG_LTGcore_CG_RTGcore_CG] (site TCGCGACCTCG) (LTG core: CG, RTG core: CG)”, the “recombinant barcode read abundance (log10)” value was found to be 0.0313.

As for “TCGCGACCTTGGGTTCTAACCTGTTGCCGAC [TCGCGACCTCG_LTGcore_CT_RTGcore_GT] (site TCGCGACCTCG) (LTG core: CT, RTG core: GT)”, the “recombinant barcode read abundance (log10)” value was 0.201.

In the case of “TCGCGACCTTGGGTTCTAACCTGTTGCCGGC [TCGCGACCTCG_LTGcore_CT_RTGcore_GC] (site TCGCGACCTCG) (LTG core: CT, RTG core: GC)”, the “recombinant barcode read abundance (log10)” value came to 0.0211.

For the sequence “TCGCGACCTTGGGTTCTAACCTGTTGCCGTG [TCGCGACCTCG_LTGcore_CT_RTGcore_CA] (site TCGCGACCTCG) (LTG core: CT, RTG core: CA)”, the “recombinant barcode read abundance (log10)” value was found to be 0.0363.

For the sequence “TCGCGACGGTGGGTTCTAACCTGTTGCCGAG [TCGCGACCTCG_LTGcore_GG_RTGcore_CT] (site TCGCGACCTCG) (LTG core: GG, RTG core: CT)”, the “recombinant barcode read abundance (log10)” value was found to be 0.167.

As to “TCGCGACTGTGGGTTCTAACCTGTTGCCGAG [TCGCGACCTCG_LTGcore_TG_RTGcore_CT] (site TCGCGACCTCG) (LTG core: TG, RTG core: CT)”, the “recombinant barcode read abundance (log10)” value is 0.302.

For “TCGCGACTTTGGGTTCTAACCTGTTGCCGAG [TCGCGACCTCG_LTGcore_TT_RTGcore_CT] (site TCGCGACCTCG) (LTG core: TT, RTG core: CT)”, the “recombinant barcode read abundance (log10)” value was 0.282.

On to “TCTACCCAGTGGGTTCTAACCTGTTGCTGCT [TCTACCCCTCA_LTGcore_AG_RTGcore_AG] (site TCTACCCCTCA) (LTG core: AG, RTG core: AG)”, for which the “recombinant barcode read abundance (log10)” value is 0.24.

As for “TCTACCCCCTGGGTTCTAACCTGTTGCTGAG [TCTACCCCTCA_LTGcore_CC_RTGcore_CT] (site TCTACCCCTCA) (LTG core: CC, RTG core: CT)”, the “recombinant barcode read abundance (log10)” value worked out at 0.0931.

Turning to “TCTACCCCTTGGGTTCTAACCTGTTGCTGAG [TCTACCCCTCA_LTGcore_CT_RTGcore_CT] (site TCTACCCCTCA) (LTG core: CT, RTG core: CT)”, the “recombinant barcode read abundance (log10)” value is 0.783.
